Laboratory results published in US10875898B2, “Bioactive protein, use thereof and method for its production” (Koppert B.V., priority 2014, dated 2020).

Experiments:
Alternaria spp. = assay: spore germination in Potato Dextrose Broth; format: cell-based; settings: 5 μM HYTLO1, 25° C., 24 hours, PDB
Experimental: (§1) FIG. 3: HYTLO1 antifungal activity. Spore of the pathogens Botrytis cinerea and Alternaria spp. and of the biocontrol agent Trichoderma harzianum strain MK1-KV966 were germinated at 25° C. for 24 hours in Potato Dextrose Broth (PDB) containing 5 μM of HYTLO1 and compared with those germinated in PDB plus the same solvent as the control.

Botrytis cinerea = assay: spore germination in Potato Dextrose Broth; format: cell-based; settings: 5 μM HYTLO1, 25° C., 24 hours, PDB
Experimental: as §1

Cucumis sativus = assay: seed germination of cucumber on MS agar; format: in vivo; settings: 10^−8 M in agar medium
Experimental: FIG. 12: Effect of purified HYTLO1 on the growth of Arabidopsis (A), percentage seed germination of cucumber (B) and plantlet development of Lotus japonicus (C). A: Arabidopsis thaliana (Columbia-0: Col-0) seeds were sown in Levington's F2 compost plus sand (JFC Munro, Devon; http://www.jfcmonro.com) and chilled for 2 days at 4° C. Plants were grown under short-day conditions (10 h light) in a controlled environment chamber, at 22° C. during the day and 18° C. at night with 60% relative humidity for 5-6 weeks before transplanting. Ten ml of sterile solutions of HYTLO1 were drenched every two days at concentrations 0.072 μg/ml (0.01 μM) for one month in each pot containing 100 ml of soil and 1 Arabidopsis plant. Untreated plants were used as controls. B: Sterile cucumber seeds were placed on magenta box containing half-strength Murashige and Skoog salt (MS) medium (ICN Biomedicals) containing 1% agar and 1.5% sucrose, adjusted to pH 5.7, and vernalized for 2 days at 4° C. in the absence of light. A sterile solutions of HYTLO1 was added to the substrate at final concentration of 10^−8 M before the solidification of agar. C: The same concentration of HYTLO1 was used in the agarized medium used for the L. japonicus test. […]

B. cinerea = assay: infection of tomato leaves by the pathogen B. cinerea; format: in vivo, Botrytis cinerea; settings: 10 μL applied to tomato leaf 2 hours before B. cinerea spores; up to 72 hr after inoculation
Experimental: FIG. 8: Effect of purified HYTLO1 application on the infection of tomato leaves by the pathogen B. cinerea. 10 μL of a solution of HYTLO1 were applied to tomato leaves and 2 hours later 10 μL of a B. cinerea spore suspension 1×10^6/ml were applied on the same spot. The measures were taken 72 hours post inoculation. The standard deviation bars were obtained from at least three different experiments, with five replicates and a total of 15 treated leaves per treatment. In order to determine if purified HYTLO1 is able to protect the plant from foliar infection by a pathogenic fungus, the protein was tested on tomato grown-up plants against Botrytis cinerea.

Lotus japonicus = assay: Rhizobium lotii on Lotus japonicus in vitro system, plant growth and nodule density; format: in vivo; settings: HYTLO1 0.07 μM, 6PP 0.002 μM, 4 weeks after seeding
Experimental: Wt+Rhz=treatment with R. loti, Wt-Rhz without R. loti. (D) Growth measured after 4 weeks, in the absence (cont) or presence of Rhizoba R. loti ((+) Rhiz). The purified molecules were added to the sterile MS media and poured into Petri dishes. Data were recorded 4 weeks after seeding of L. japonicus.
FIG. 18. […] (HYT=HYTLO1 at 0.07 μM, 6PP at 0.002 μM, HA=Harzianic Acid at 0.001 μM). Wt=control with R. loti without metabolites. The purified molecules were added to the sterile MS media and poured into Petri dishes. Average number of nodules per cm of root are indicated. Data were recorded 4 weeks after seeding of L. japonicus.
In order to test the effect of HYTLO1, as well as of the secondary metabolites HA and 6PP on the growth promotion activity of Rhizobia, such as Rhizobium sp., on legumimosae plants, we used a standard Rhizobium lotii on Lotus japonicus in vitro system (Barbulova et al., 2005, Functional Plant Biology, 32:529-536). Plant growth and nodule density on the roots were scored four weeks after seeding by comparing untreated controls and the various treatments.

tomato = tomato root development (seeds, cuttings); format: in vivo
Experimental: FIG. 9: Effect of purified HYTLO1 application on tomato plant and root development. Tomato roots (left) and tomato cuttings (right) were dipped in a HYTLO1 solution of 0.018 μM.
In order to investigate the effect of HYTLO1 on the development of plants, either at the level of seed germination, germling formation and survival, root formation, stem elongation and thickness, foliar development, as well as general plant size, various experiments were performed with the purified protein. […] The protein clearly stimulated rhizogenesis on different plants. […] Experiments on plants were performed in vivo by watering and spraying tomato plants with a HYTLO1 0.01 μM solution as described in the legend of FIG. 10. In these experiments, the effect of HYTLO1 was also compared with that of the commercial biocontrol strain T. harzianum T22 (applied as spore suspension according the typical application rate of commercial products) and that of the germinating hormone 1-naphthaleneacetic acid (GERMON E—produced by L. Gobbi, Italy) (applied at the typical application rate of commercial products). Applications were made once per week for one month by watering the tomato plants. Results, expressed in terms of plant height and length, root length and weight, number of leaves, stem diameter and weight, are combined and shown in FIG. 10 and FIG. 11.

Substance: HYTLO1: about 7 KDa Type II hydrophobin protein from Trichoderma longibrachiatum strain MK1, 71 aa, SEQ ID NO: 1
- effect on germination of spores (Alternaria spp.): direct inhibitory effect
- effect on germination of spores (Botrytis cinerea): direct inhibitory effect
- growth promotion effect (percentage seed germination) (Cucumis sativus): confirmed
- concentration of HYTLO1 that significantly reduced the size of the necrotic area (B. cinerea): above 1.25 μM
- plant growth promotion effect of Rhizobia on Lotus japonicus (Lotus japonicus; HA 0.001 μM in MS media): enhances the plant growth promotion effect of Rhizobia
- nodule formation (number of nodules per cm of root) (Lotus japonicus; HA 0.001 μM, with R. loti): Enhancement of nodule formation
- concentration promoting root growth and development (tomato; assays on cuttings): ≥ 0.31 µM
- de novo root formation on tomato cuttings (tomato; cuttings dipped in 0.075 and 0.018 μM, after 15 days, no roots in controls): formed de novo roots
- root apparatus of plantlets vs untreated control (tomato; tomato seeds germinated with HYTLO1 10^−6 to 10^−9 M, data not shown): more than double
